Source: PubChem BioAssay AID1963444 (Molecular Pharmacology Branch, DTP, NCI, 2024)

Test system: HSSY-II complex spheroid growth, percent test/control
Test: Anticancer human tumor HSSY-II cell line growth inhibition [Asc];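 further: spheroids exposed to drug for 7 days before reading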
Conditions: for IC50: curve of first compound; for viability, T/C: stronger effect = lower value
Summary of the method: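 Concentration series start at each agent's clinical Cmax, or at 10 microM when none is established, and drop in half-log steps; agents are applied alone or together to complex spheroids built with HUVEC and hMSC.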

`Cc1nc(N2CCC3(CC2)COC(C)C3N)c(CO)nc1Sc1ccnc(N)c1Cl` (stereo not given) + CCN1C(C(=O)NC23CCC(C(=O)O)(CC2)CC3)C(c2cccc(Cl)c2F)C2(C(=O)Nc3cc(Cl)ccc32)C12CCCCC2 was tested, and the IC50 (second compound 0.03 µM) was greater than 3000 nM, the IC50 (second compound 0.0949 µM) was 612 nM and the IC50 (second compound 0.3 µM) was less than 9.49 nM. It also gave an IC50 (second compound 0.949 µM) of less than 9.49 nM, an IC50 (second compound 3 µM) of less than 9.49 nM and a viability, T/C (second compound 0.03 µM, first compound 0.00949 µM) of 105%. For the same compound, the viability, T/C (second compound 0.03 µM, first compound 0.03 µM) was 97.6%, the viability, T/C (second compound 0.03 µM, first compound 0.0949 µM) was 100% and the viability, T/C (second compound 0.03 µM, first compound 0.3 µM) was 93.2%. It also gave a viability, T/C (second compound 0.03 µM, first compound 0.949 µM) of 88.8%, a viability, T/C (second compound 0.03 µM, first compound 3 µM) of 59.8% and a viability, T/C (second compound 0.0949 µM, first compound 0.00949 µM) of 64%. The viability, T/C (second compound 0.0949 µM, first compound 0.03 µM) was 59.3%, the viability, T/C (second compound 0.0949 µM, first compound 0.0949 µM) was 57.6% and the viability, T/C (second compound 0.0949 µM, first compound 0.3 µM) was 58.7%. For the same compound, the viability, T/C (second compound 0.0949 µM, first compound 0.949 µM) was 44.3%, the viability, T/C (second compound 0.0949 µM, first compound 3 µM) was 36.6% and the viability, T/C (second compound 0.3 µM, first compound 0.00949 µM) was 23.8%. It also gave a viability, T/C (second compound 0.3 µM, first compound 0.03 µM) of 22.2%, a viability, T/C (second compound 0.3 µM, first compound 0.0949 µM) of 23.4% and a viability, T/C (second compound 0.3 µM, first compound 0.3 µM) of 23.2%. For the same compound, the viability, T/C (second compound 0.3 µM, first compound 0.949 µM) was 14.6%, the viability, T/C (second compound 0.3 µM, first compound 3 µM) was 18.5% and the viability, T/C (second compound 0.949 µM, first compound 0.00949 µM) was 7.31%. The viability, T/C (second compound 0.949 µM, first compound 0.03 µM) was 6.01%, the viability, T/C (second compound 0.949 µM, first compound 0.0949 µM) was 4.66% and the viability, T/C (second compound 0.949 µM, first compound 0.3 µM) was 3.37%. For the same compound, the viability, T/C (second compound 0.949 µM, first compound 0.949 µM) was 2.01%, the viability, T/C (second compound 0.949 µM, first compound 3 µM) was 2.02% and the viability, T/C (second compound 3 µM, first compound 0.00949 µM) was 1.65%. For the same compound, the viability, T/C (second compound 3 µM, first compound 0.03 µM) was 1.25%, the viability, T/C (second compound 3 µM, first compound 0.0949 µM) was 0.81% and the viability, T/C (second compound 3 µM, first compound 0.3 µM) was 0.41%. The viability, T/C (second compound 3 µM, first compound 0.949 µM) was 0.35% and the viability, T/C (second compound 3 µM, first compound 3 µM) was 0.42%.

`C=CC(=O)N1CCN(c2nc(=O)n(-c3c(C)ccnc3C(C)C)c3nc(-c4c(O)cccc4F)c(F)cc23)C(C)C1` (stereo not given) + CCN1C(C(=O)NC23CCC(C(=O)O)(CC2)CC3)C(c2cccc(Cl)c2F)C2(C(=O)Nc3cc(Cl)ccc32)C12CCCCC2 was tested, and the IC50 (second compound 0.03 µM) was 7300 nM, the IC50 (second compound 0.0949 µM) was 2580 nM and the IC50 (second compound 0.3 µM) was less than 31.6 nM. It also gave an IC50 (second compound 0.949 µM) of less than 31.6 nM, an IC50 (second compound 3 µM) of less than 31.6 nM and a viability, T/C (second compound 0.03 µM, first compound 0.0316 µM) of 87.5%. The viability, T/C (second compound 0.03 µM, first compound 0.1 µM) was 89.6%, the viability, T/C (second compound 0.03 µM, first compound 0.316 µM) was 89.5% and the viability, T/C (second compound 0.03 µM, first compound 1 µM) was 88%. It also gave a viability, T/C (second compound 0.03 µM, first compound 3.16 µM) of 84.7%, a viability, T/C (second compound 0.03 µM, first compound 10 µM) of 36.9% and a viability, T/C (second compound 0.0949 µM, first compound 0.0316 µM) of 60.3%. For the same compound, the viability, T/C (second compound 0.0949 µM, first compound 0.1 µM) was 63.9%, the viability, T/C (second compound 0.0949 µM, first compound 0.316 µM) was 65.2% and the viability, T/C (second compound 0.0949 µM, first compound 1 µM) was 62.7%. For the same compound, the viability, T/C (second compound 0.0949 µM, first compound 3.16 µM) was 47.3%, the viability, T/C (second compound 0.0949 µM, first compound 10 µM) was 18.4% and the viability, T/C (second compound 0.3 µM, first compound 0.0316 µM) was 25.3%. The viability, T/C (second compound 0.3 µM, first compound 0.1 µM) was 26.3%, the viability, T/C (second compound 0.3 µM, first compound 0.316 µM) was 26% and the viability, T/C (second compound 0.3 µM, first compound 1 µM) was 23.6%. For the same compound, the viability, T/C (second compound 0.3 µM, first compound 3.16 µM) was 20.9%, the viability, T/C (second compound 0.3 µM, first compound 10 µM) was 9.83% and the viability, T/C (second compound 0.949 µM, first compound 0.0316 µM) was 7.57%. It also gave a viability, T/C (second compound 0.949 µM, first compound 0.1 µM) of 7.88%, a viability, T/C (second compound 0.949 µM, first compound 0.316 µM) of 7.75% and a viability, T/C (second compound 0.949 µM, first compound 1 µM) of 6.93%. The viability, T/C (second compound 0.949 µM, first compound 3.16 µM) was 6.22%, the viability, T/C (second compound 0.949 µM, first compound 10 µM) was 6.06% and the viability, T/C (second compound 3 µM, first compound 0.0316 µM) was 2.1%. The viability, T/C (second compound 3 µM, first compound 0.1 µM) was 2.5%, the viability, T/C (second compound 3 µM, first compound 0.316 µM) was 2.3% and the viability, T/C (second compound 3 µM, first compound 1 µM) was 2.77%. The viability, T/C (second compound 3 µM, first compound 3.16 µM) was 2.35% and the viability, T/C (second compound 3 µM, first compound 10 µM) was 1.69%.
